From patent US4196205A, “3-Acetoxymethyl-7-(iminoacetamido)-cephalosporanic acid derivatives” (priority 1976, dated 1980)
≈ marks a conversion by molar mass, not a printed value. Where two headings read alike, the source gives them in different places.

Columns and labels:
[1] = system: Bacillus subtilis ATCC 6 633; experiment: MIC, dilution in liquid medium; format: cell-based; conditions: for MIC: Bacillus subtilis
Procedure: (§1) The method used was a dilution of a liquid medium where a series of tubes received the same quantity of a sterile nutritive media and increasing doses of the test compounds were placed therein. Then each tube was seeded with a bacterial strain and was incubated for 24 to 48 hours at 37° C. in an oven. The increasing inhibition was determined by transillumination to determine the minimum inhibiting concentration (MIC in […]) and the results are reported in the following Tables.

[2] = system: Escherichia Coli Exp. TO26 B6; experiment: MIC, dilution in liquid medium; format: cell-based; conditions: for MIC: Escherichia coli
Procedure: as §1

[3] = system: Escherichia Coli Resistant Gentamicine, Tobramycine R 55 123 D; experiment: MIC, dilution in liquid medium; format: cell-based; conditions: Escherichia coli
Procedure: as §1

[4] = system: Escherichia Coli Resistant Tetracycline ATCC 11 303 = UC 1261; experiment: MIC, dilution in liquid medium; format: cell-based; conditions: Escherichia coli
Procedure: as §1

[5] = system: Escherichia Coli Sensible Tetracycline ATCC 9 637 = 1020; experiment: MIC, dilution in liquid medium; format: cell-based; conditions: Escherichia coli
Procedure: as §1

[6] = system: Klebsiella pneumoniae 2 536 Resistant Gentamicine; experiment: MIC, dilution in liquid medium; format: cell-based; conditions: Klebsiella pneumoniae
Procedure: as §1

[7] = system: Klebsiella pneumoniae Exp. 52 145; experiment: MIC, dilution in liquid medium; format: cell-based; conditions: for MIC: Klebsiella pneumoniae
Procedure: as §1

[8] = system: Proteus mirabilis (indol-) A 235; experiment: MIC, dilution in liquid medium; format: cell-based; conditions: for MIC: Proteus mirabilis
Procedure: as §1

[9] = system: Proteus vulgaris (indol+) A 232; experiment: MIC, dilution in liquid medium; format: cell-based; conditions: Proteus vulgaris
Procedure: as §1

[10] = system: Providencia Du 48; experiment: MIC, dilution in liquid medium; format: cell-based; conditions: for MIC: Providencia
Procedure: as §1

[11] = system: Pseudomonas 3 935 Exp. SG; experiment: MIC, dilution in liquid medium; format: cell-based; conditions: Pseudomonas, 3935EXP.SG
Procedure: as §1

[12] = system: Salmonella typhimurium 420; experiment: MIC, dilution in liquid medium; format: cell-based; conditions: Salmonella enterica, TYPHIMURIUM
Procedure: as §1

[13] = system: Serratia Resistant Gentamicine 2 532; experiment: MIC, dilution in liquid medium; format: cell-based
Procedure: as §1

[14] = system: Staphylococcus aureus ATCC 5 638 Pen-Sensible = UC 1061; experiment: MIC, dilution in liquid medium; format: cell-based
Procedure: as §1

[15] = system: Staphylococcus aureus UC 1 128 Pen-Resistant; experiment: MIC, dilution in liquid medium; format: cell-based; conditions: Staphylococcus aureus
Procedure: as §1

[16] = system: Staphylococcus aureus exp. n° 54 146; experiment: MIC, dilution in liquid medium; format: cell-based; conditions: Staphylococcus aureus
Procedure: as §1

[17] = system: Streptococcus faecalis 5 432; experiment: MIC, dilution in liquid medium; format: cell-based
Procedure: as §1

[18] = system: Streptococcus faecalis 99 F 74; experiment: MIC, dilution in liquid medium; format: cell-based; conditions: Enterococcus faecalis
Procedure: as §1

[19] = system: Streptococcus pyogenes A 561; experiment: MIC, dilution in liquid medium; format: cell-based; conditions: Streptococcus pyogenes
Procedure: as §1

[20] = system: Proteus Mirabilis A 235; experiment: Experimental infection of Proteus Mirabilis in mice; format: in vivo
Procedure: Groups of 10 mice with an average weight of 22 g received intraperitoneally 0.5 ml of a 24 hour old culture in oxoid bouillon of Proteus Mirabilis A 235 diluted 1/4 with distilled water. The mice then received subcutaneously the compound of Examples 11 or 15 one hour and 5 and 24 hours after the infection and the results are reported in the following Table.

## CCO/N=C(/C(=O)NC1C(=O)N2C(C(=O)O)=C(COC(C)=O)CSC12)c1csc(N)n1 (stereo not drawn) [Example 15, anti isomer of 3-acetoxymethyl-7-[2-(2-amino-4-thiazolyl)-2-ethoxyiminoacetamido]-ceph-3-eme-4-carboxylic acid]
[1]; 24 H
  M.I.C.: 20 µg/mL
[1]; ATCC6, 24 h, 24 H, read-out: M.I.C.
  MIC: 10 µg/mL (≈ 21.3 µM)
[2]; 48 H
  M.I.C.: 40 µg/mL
[3]; 24 h
  MIC: 40 µg/mL (≈ 85.2 µM)
[3]; 24 h, read-out: M.I.C.
  MIC: 100 µg/mL (≈ 213 µM)
[3]; 48 h
  MIC: 40 µg/mL (≈ 85.2 µM)
[3]; 48 h, read-out: M.I.C.
  MIC: 100 µg/mL (≈ 213 µM)
[4]; 24 h
  MIC: 20 µg/mL (≈ 42.6 µM)
[4]; 24 h, read-out: M.I.C.
  MIC: 10 µg/mL (≈ 21.3 µM)
[4]; 48 h
  MIC: 20 µg/mL (≈ 42.6 µM)
[4]; 48 h, read-out: M.I.C.
  MIC: 10 µg/mL (≈ 21.3 µM)
[5]; ATCC9, 24 h, 24 H, read-out: M.I.C.
  MIC: > 100 µg/mL
[5]; ATCC9, 48 h, 48 H, read-out: M.I.C.
  MIC: > 100 µg/mL
[6]; 24 h, read-out: M.I.C.
  MIC: > 100 µg/mL
[6]; 48 h, read-out: M.I.C.
  MIC: > 100 µg/mL
[7]; 24 H
  M.I.C.: 40 µg/mL
[7]; 48 H
  M.I.C.: 40 µg/mL
[7]; EXP.52145, 24 h, 24 H
  MIC: 20 µg/mL (≈ 42.6 µM)
[7]; EXP.52145, 48 h, 48 H
  MIC: 20 µg/mL (≈ 42.6 µM)
[8]; 24 H
  M.I.C.: 5 µg/mL
[8]; 24 h, read-out: M.I.C.
  MIC: 10 µg/mL (≈ 21.3 µM)
[9]; 24 h, read-out: M.I.C.
  MIC: > 100 µg/mL
[9]; 48 h, read-out: M.I.C.
  MIC: > 100 µg/mL
[10]; 24 H
  M.I.C.: > 100 µg/mL
[10]; DU48, 24 h, 24 H, read-out: M.I.C.
  MIC: 100 µg/mL (≈ 213 µM)
[10]; DU48, 48 h, 48 H, read-out: M.I.C.
  MIC: > 100 µg/mL
[11]; 24 h, read-out: M.I.C.
  MIC: > 100 µg/mL
[11]; 48 h, read-out: M.I.C.
  MIC: > 100 µg/mL
[12]; 24 h, read-out: M.I.C.
  MIC: 100 µg/mL (≈ 213 µM)
[12]; 48 h, read-out: M.I.C.
  MIC: 100 µg/mL (≈ 213 µM)
[13]; 24 h, read-out: M.I.C.
  MIC: > 100 µg/mL
[13]; 48 h, read-out: M.I.C.
  MIC: > 100 µg/mL
[14]; 24 h
  MIC: 20 µg/mL (≈ 42.6 µM)
[14]; 48 h
  MIC: 20 µg/mL (≈ 42.6 µM)
[15]; UC1, 24 h, 24 H
  MIC: 40 µg/mL (≈ 85.2 µM)
[15]; UC1, 48 h, 48 H
  MIC: 40 µg/mL (≈ 85.2 µM)
[16]; 24 h
  MIC: 40 µg/mL (≈ 85.2 µM)
[16]; 48 h
  MIC: 40 µg/mL (≈ 85.2 µM)
[17]; Enterococcus faecalis, 5432, 24 h, read-out: M.I.C.
  MIC: > 100 µg/mL
[17]; Enterococcus faecalis, 5432, 48 h, read-out: M.I.C.
  MIC: > 100 µg/mL
[18]; 99F74, 24 h, read-out: M.I.C.
  MIC: > 100 µg/mL
[18]; 99F74, 48 h, read-out: M.I.C.
  MIC: > 100 µg/mL
[19]; A561, 24 h
  MIC: 1 µg/mL (≈ 2.13 µM)
[19]; A561, 24 h, 24 H, read-out: M.I.C.
  MIC: 0.4 µg/mL (≈ 0.852 µM)
[19]; A561, 48 h
  MIC: 1 µg/mL (≈ 2.13 µM)
[19]; A561, 48 h, 48 H, read-out: M.I.C.
  MIC: 0.4 µg/mL (≈ 0.852 µM)
[20]; 0.5 mg subcutaneously
  MORTALITY AFTER 6H55: 1
  MORTALITY AFTER 21H30: 9
  Mice Alive on the 8th day: 0/10
[20]; 1 mg subcutaneously
  MORTALITY AFTER 21H30: 5
  MORTALITY AFTER 23H10: 1
  MORTALITY AFTER 23H30: 1
  MORTALITY AFTER 28H: 2
  MORTALITY AFTER 70H: 1
  Mice Alive on the 8th day: 0/10

## CO/N=C(/C(=O)NC1C(=O)N2C(C(=O)O)=C(COC(C)=O)CSC12)c1csc(N)n1 (stereo not drawn) [Product A, anti isomer of 3-acetoxymethyl-7-[2-(2-amino-4-thiazolyl)-2-methoxyimino-acetamido]-ceph-3-eme-4-carboxylic acid]
[1]; ATCC6, 24 h, 24 H
  MIC: 20 µg/mL (≈ 43.9 µM)
[1]; ATCC6, 48 h, 48 H
  MIC: 20 µg/mL (≈ 43.9 µM)
[2]; 24 h
  MIC: 5 µg/mL (≈ 11 µM)
[2]; 48 h
  MIC: 5 µg/mL (≈ 11 µM)
[3]; 24 h, read-out: M.I.C.
  MIC: 10 µg/mL (≈ 22 µM)
[3]; 48 h, read-out: M.I.C.
  MIC: 10 µg/mL (≈ 22 µM)
[4]; 24 h
  MIC: 2 µg/mL (≈ 4.39 µM)
[4]; 48 h
  MIC: 2 µg/mL (≈ 4.39 µM)
[5]; ATCC9, 24 h, 24 H
  MIC: 20 µg/mL (≈ 43.9 µM)
[5]; ATCC9, 48 h, 48 H
  MIC: 40 µg/mL (≈ 87.8 µM)
[6]; 24 h
  MIC: > 40 µg/mL
[6]; 48 h
  MIC: > 40 µg/mL
[7]; EXP.52145, 24 h, 24 H
  MIC: 1 µg/mL (≈ 2.2 µM)
[7]; EXP.52145, 48 h, 48 H
  MIC: 1 µg/mL (≈ 2.2 µM)
[8]; 24 h
  MIC: 2 µg/mL (≈ 4.39 µM)
[8]; 48 h
  MIC: 2 µg/mL (≈ 4.39 µM)
[9]; 24 h
  MIC: > 40 µg/mL
[9]; 48 h
  MIC: > 40 µg/mL
[10]; DU48, 24 h, 24 H
  MIC: 40 µg/mL (≈ 87.8 µM)
[10]; DU48, 48 h, 48 H
  MIC: > 40 µg/mL
[11]; 24 h
  MIC: > 40 µg/mL
[11]; 48 h
  MIC: > 40 µg/mL
[12]; 24 h
  MIC: 20 µg/mL (≈ 43.9 µM)
[13]; 24 h
  MIC: > 40 µg/mL
[13]; 48 h
  MIC: > 40 µg/mL
[14]; 24 h
  MIC: 40 µg/mL (≈ 87.8 µM)
[14]; 48 h
  MIC: 40 µg/mL (≈ 87.8 µM)
[15]; UC1, 24 h, 24 H
  MIC: > 40 µg/mL
[15]; UC1, 48 h, 48 H
  MIC: > 40 µg/mL
[16]; 24 h
  MIC: 40 µg/mL (≈ 87.8 µM)
[16]; 48 h
  MIC: 40 µg/mL (≈ 87.8 µM)
[17]; Enterococcus faecalis, 5432, 24 h, 24 H
  MIC: > 40 µg/mL
[17]; Enterococcus faecalis, 5432, 48 h, 48 H
  MIC: > 40 µg/mL
[18]; 99F74, 24 h, 24 H
  MIC: > 40 µg/mL
[18]; 99F74, 48 h, 48 H
  MIC: > 40 µg/mL
[19]; A561, 24 h
  MIC: 0.4 µg/mL (≈ 0.878 µM)
[19]; A561, 48 h
  MIC: 0.4 µg/mL (≈ 0.878 µM)
